Entries after “also recorded” stand apart in the source; their conditions may differ. Read-outs that look alike come from different tables or passages of the source.
T1: SFXN1 (Homo sapiens, UniProt Q9H9B4)
T1 construct: made in house
T1 sequence (Q9H9B4 1-322): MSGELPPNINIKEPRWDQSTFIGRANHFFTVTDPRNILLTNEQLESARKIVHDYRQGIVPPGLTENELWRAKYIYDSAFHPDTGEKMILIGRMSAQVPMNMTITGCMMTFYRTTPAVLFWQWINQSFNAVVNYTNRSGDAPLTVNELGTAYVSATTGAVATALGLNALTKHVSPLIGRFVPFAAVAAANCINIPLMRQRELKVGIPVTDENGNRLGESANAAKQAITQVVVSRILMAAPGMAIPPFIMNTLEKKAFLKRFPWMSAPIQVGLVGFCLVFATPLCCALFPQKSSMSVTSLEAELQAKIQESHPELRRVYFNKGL

B1: SFXN1 (Homo sapiens) (protein)
chain: T1 sequence (Q9H9B4 1-322)
notes: made in house

Experiments:
SFXN1 [1] = biological target: T1, SFXN1; assay: In vitro transport assay: [3H] serine/alanine uptake into SFXN1 proteoliposomes; format: biochemical; details: for competition of serine uptake by different metabolites (FIG. 3B) / competition of serine uptake by different metabolites (FIG. 3C): after 60 min, SFXN1 liposomes; for competition of serine uptake by different metabolites (FIG. 3C): metabolites at 500 μM; for Km: steady-state kinetic analysis, proteoliposomes
Method: (§1) In vitro transport assays were performed as described previously with the following specifications. Flag-SFXN1 was purified from 293T cells stably expressing the protein using FLAG-affinity purification and eluted off beads with FLAG peptide.
(§2) 1% Phosphatidylcholine was added to total E. coli lipids in chloroform, evaporated under nitrogen and desiccated overnight. Dried lipids were hydrated in inside buffer (20 mM MES pH 7, 50 mM NaCl, 20 mM KCl) by freeze-thawing in liquid nitrogen 20× times. Lipids were extruded 6× though a 0.4 μm filter and 15× through a 0.1 μm filter. 15 ug of purified SFXN1 protein were reconstituted into 1.2 mg liposomes using a detergent:lipid ratio of 5:1 with the addition of 1 mM DTT in inside buffer rotating at 4 degree for 1 hour. The proteoliposomes were incubated for 3 sequential rounds with Bio-beads to remove detergent. A liposome-only control was prepared by replacing the protein with inside buffer in the reconstitution reaction. Incorporation of protein into liposomes was assessed using glycerol gradient centrifugation. A buffer containing 20 mM Tris-HCL pH 7.4 and 100 mM NaCl was used as outside buffer in transport reactions.
In vitro transport assays were performed as described previously (43, 44) with the following specifications. FLAG-SFXN1 was purified from HEK-293T cells stably expressing the protein using FLAG-affinity purification and eluted off the beads with the FLAG peptide.
1% Phosphatidylcholine was added to total E. coli lipids in chloroform, evaporated under nitrogen and desiccated overnight. Dried lipids were hydrated in inside buffer (20 mM MES pH 7, 50 mM NaCl, 20 mM KCl) by freeze-thawing in liquid nitrogen 20× times. Lipids were extruded 6× through a 0.4 μm filter and 15× through a 0.1 μm filter. 15 μg of purified SFXN1 protein were reconstituted into 1.2 mg liposomes using a detergent:lipid ratio of 5:1 with the addition of 1 mM DTT in inside buffer rotating at 4° C. for 1 hour. The proteoliposomes were incubated for 3 sequential rounds with Bio-Beads to remove detergent. A liposome-only control was prepared by replacing the protein with inside buffer in the reconstitution reaction. Incorporation of protein into liposomes was assessed using a glycerol gradient centrifugation assay. [3H] […] Different lots of total E. coli lipid extracts were tested and ones that optimally preserved SFXN1 activity were used in experiments.

SFXN1-null Jurkat cells = assay: LC-MS metabolite quantification (purine synthesis intermediates, serine, glycine) in SFXN1-null cells; format: cell-based, human; details: 1 mM formate, 24 hours in indicated media
Method: Quantification of metabolite abundance using LC/MS-based metabolomics was performed and analyzed as previously described. Briefly, Jurkat or K562 cells were seeded at densities of 0.6×10^6 per ml and 0.33×10^6 per ml, respectively. 24 h later, 2×10^6 Jurkat or 1×10^6 K562 cells were harvested, washed once in ice-cold 0.9% saline prepared with LC-MS grade H2O, and extracted with 80% methanol containing 500 nM isotope-labeled amino acids as internal standards (Cambridge Isotope Laboratories). The samples were vortexed for 10 min at 4° C. and spun down at 17,000×g. The supernatant was dried by vacuum centrifugation at 4° C. Samples were stored at −80° C. until analyzed. On the day of analysis, samples were resuspended in 50-100 μL of LC/MS grade water and the insoluble fraction was cleared by centrifugation at 15,000 rpm. The supernatant was then analyzed as previously described by LC/MS (21, 33). […]
Metabolite abundance using LC/MS-based metabolomics was measured and quantified as previously described (15). […] Samples were stored at −80° C. until analyzed. […] The supernatant was then analyzed as previously described by LC-MS (15, 38) Amino acids were normalized to their respective internal standards, purine synthesis intermediates were normalized to the glutamate internal standard. […]

[2] = tested on: SFXN1/3-null Jurkat cells; assay: Cell proliferation assay in glycine-deficient media, formate rescue; format: cell-based, human; details: 1 mM formate, cells cultured with it 2 days before the experiment
Method: (§3) 10,000 cells per well were seeded into 96 well plates in triplicate. Cell titer glo reagent (Promega) was added to one plate immediately after seeding and luminescence was measured, while a second plate was read-out 4 days after seeding. Number of doublings in 4 days was determined by calculating the log2 fold-change in signal between day 0 and 4. For formate rescue experiments, 1 mM formate was added to cells at time of seeding (Jurkat cells) or cells were cultured in formate-containing media for 1 week prior to the experiment (K562 cells) unless indicated otherwise.
(§4) 10,000 cells per well were seeded into 96-well plates in triplicate. Cell titer glo reagent (Promega) was added to one plate immediately after seeding and luminescence was measured, while a second plate was read-out 4 days after seeding. Number of doublings in 4 days was determined by calculating the log2 fold-change in signal between day 0 and 4. For formate rescue experiments, 1 mM formate was added to media at the time of seeding (Jurkat cells) or cells were cultured in formate-containing media for 1 week prior to the experiment (K562 cells) unless indicated otherwise.

[3] = tested on: SFXN1-null cells (Jurkat and K562); assay: Cell proliferation assay (Cell titer glo) in serine-deficient media, formate rescue; format: cell-based, human; details: 1 mM formate added, 4 days
Method: as §3, §4

SFXN1 [4] = assay: Amino acid uptake into mitochondria isolated from wild-type or SFXN1-null Jurkat cells; format: biochemical, human; details: 0.75 μM [3H] serine or 3 μM [3H] glutamate, 30° C.
Method: Mitochondria from wild-type or SFXN1-null Jurkat cells were prepared according to (45). Briefly, cells (˜1 g starting material) were resuspended in low tonicity buffer (100 mM sucrose, 10 mM MOPS pH 7.2, 1 mM EGTA, 0.1% BSA) and disrupted with 20 strokes in a homogenizer containing a pure PTFE head (VWR International) and two strokes with a dounce tissue grinder with tight-fitting pestle (DWK Life Sciences Kimbl Kontes). After adjusting tonicity, lysates were spun twice at 950×g to remove unbroken cells and nuclei, and mitochondria were pelleted by centrifuging at 10,000×g for 10 min. […] Mitochondrial preparations were adjusted for protein content. […] 50 μl samples were collected immediately after start of the reaction and at 1, 2, 3 mins and added to mixed cellulose-ester filters (Fisher Scientific, 0.22 μm pore size) connected to a vacuum line (adapted from (47)). Filters were washed with 3 mL of ice cold TBS and the radioactivity remaining on the filters was measured using a scintillation counter. Blank reaction samples, in which mitochondria were replaced with incubation media, were used to subtract the background. The uptake rate was calculated from the first two minutes of the reaction.

[5] = substrate: C[C@H](N)C(=O)O; assay: purified protein, by the assay type; details: other: steady-state kinetic analysis; proteoliposomes
[6] = substrate: N[C@@H](CO)C(=O)O; assay: purified protein, by the assay type; format: biochemical, human; details: other: steady-state kinetic analysis; proteoliposomes; [3H] serine 1 μM with increasing unlabeled serine
Method: as §1
as §2, with “reactions. […]” for “reactions.”
1% Phosphatidylcholine was added to total E. coli lipids in chloroform, evaporated under nitrogen and desiccated overnight. […] Incorporation of protein into liposomes was assessed using a glycerol gradient centrifugation assay. […]

Molecule	competition of serine uptake by different metabolites (FIG. 3B) (SFXN1 [1])	competition of serine uptake by different metabolites (FIG. 3C) (SFXN1 [1])	also measured
N[C@@H](CO)C(=O)O [L-serine]	able to complete serine uptake	competed with the transport of the labelled serine	
N[C@@H](CS)C(=O)O [cysteine]		competed with the transport of the labelled serine; also recorded: partially competed with serine	
C[C@H](N)C(=O)O [alanine]	able to complete serine uptake	competed with the transport of the labelled serine; also recorded: partially competed with serine	Km (SFXN1 [1]; read-out: Km of SFXN1-mediated alanine transport): ~371 µM
O=CO [formate]	not able to complete serine uptake	Neither formate nor citrate competed with serine transport	accumulation of purine synthesis intermediates (GAR, SAICAR, AICAR) in SFXN1-null cells (SFXN1-null Jurkat cells): completely abolish their accumulation; also recorded: abolished the accumulation of the intermediates; also recorded: reverses the accumulation of purine synthesis intermediates; glycine levels and serine/glycine ratio of SFXN1-null cells (SFXN1-null Jurkat cells): without rescuing the cellular serine and glycine levels; also recorded: did not rescue the defects in glycine levels; also recorded: does not rescue glycine levels and serine/glycine ratio; rescue of proliferation of SFXN1/3-null cells in the absence of glycine [2]: unable to rescue the growth defect; also recorded: did not reverse their proliferation defect; also recorded: does not rescue proliferation; rescue of proliferation of SFXN1-null cells in serine-deficient media [3]: completely restored growth of SFXN1-null cells; also recorded: completely reversed the slow proliferation; also recorded: rescues growth
NCC(=O)O [glycine]		competed with the transport of the labelled serine; also recorded: partially competed with serine	
N[C@@H](CCC(=O)O)C(=O)O [glutamate]			radioactive amino acid uptake into mitochondria from SFXN1-null cells compared to wild-type (SFXN1 [4]): unaffected; also recorded: unchanged
N[C@@H](CO)C(=O)O [serine]			radioactive amino acid uptake into mitochondria from SFXN1-null cells compared to wild-type (SFXN1 [4]): reduced; Km (SFXN1 [1]; [3H] serine 1 μM with increasing unlabeled serine, read-out: Km of SFXN1-mediated serine transport): 170 µM
N[C@H](CO)C(=O)O [D-serine]	able to complete serine uptake	competed with the transport of the labelled serine	
O=C(O)CC(O)(CC(=O)O)C(=O)O [citrate]		Neither formate nor citrate competed with serine transport; also recorded: does not compete with serine	
B1			Km [5]: 371 µM; Km [6]: 170 µM; Vmax [6]: 8.2 pmol/min

Reference: patent US11571441B2, “Sideroflexins as mitochondrial serine transporters” (Whitehead Institute for Biomedical Research, priority 2018, dated 2023)
